The test system of this test is Wnt5a. Description: Western blot of secreted (sWnt5a) and cellular (cWnt5a) Wnt5a in RPE cells under UOS. Format: cell-based, human. As to the method: To monitor transcription, translation, and secretion of Wnt5a, we performed western blot assays using cellular lysates and medium from hpRPE undergoing UOS+/−NPD1 at different time points. Medium was precipitated using Methanol/Chloroform to bring down all secreted Wnt5a.
The pellet can be re-suspended and denatured in 100 μl of 2× Laemmli sample buffer (Bio-Rad Laboratories, Hercules, Calif.) at 95° C. for 5 min. MCAo brain tissue and cell samples can be homogenized using RIPA (Thermo Fisher Scientific, Waltham, Mass.) buffer supplemented with protease and phosphatase inhibitor cocktails (Millipore Sigma, Burlington, Mass.). In embodiments, the amount of 30 μg of total protein is loaded in NuPAGE® Novex® 4-12% Bis-Tris precast gels (Life Technologies Corporation, Carlsbad, Calif.) and run at constant 120V for about 1 hour and 20 min. Proteins can be transferred to μm Nitrocellulose membrane using Bio-Rad Trans-Blot® Turbo™ System (Bio-Rad Laboratories, Hercules, Calif.). ECL™ Plex Fluorescent Rainbow Markers (GE Healthcare, Chicago, Ill.) can be used as the ladder for protein's molecular weight. Membranes can be blocked using 5% non-fat dry milk (Bio-Rad Laboratories, Hercules, Calif.) in TBS with 1% Tween® 20 (TBST-10×) (Croda International, Snaith, United Kingdom) for 1 hour and incubated overnight with primary antibodies. Anti-mouse or anti-rabbit secondary antibodies conjugated with Cy3 or Cy5 can be used to visualize the protein of interest. Immunoblots can be documented using LAS 4000 imaging system (GE Healthcare Life Sciences, Marlborough, Mass.). A time course exposition can be produced in each case to prevent quantification of saturated images. In embodiments, densitometry data are obtained using ImageQuant™ TL software (GE Healthcare Life Sciences, Marlborough, Mass.).
The pellet was re-suspended and denatured in 100 μl of 2× Laemmli sample buffer (Bio-Rad Laboratories) at 95° C. for 5 min. MCAo brain tissue and cell samples were homogenized using RIPA (Thermo Fisher Scientific) buffer supplemented with protease and phosphatase inhibitor cocktails (Sigma). The amount of 30 μg of total protein was loaded in NuPAGE® Novex® 4-12% Bis-Tris precast gels (Life Technologies Corporation) or Mini-PROTEAN TGX Stain free gels 4-15% and ran at constant 120V for 1 hour and 20 min or 250 V for 40 min respectively. Proteins were transferred to μm Nitrocellulose or LF-PVDF membrane using Bio-Rad Trans-Blot® Turbo™ System (Bio-Rad Laboratories). ECL™ Plex Fluorescent Rainbow Markers (GE Healthcare) were used as the ladder for protein's molecular weight. […] A time course exposition was produced in each case to prevent quantification of saturated images. […]
Background: Immunoblotting shows a protein as a band on a membrane.

Entries after “also recorded” stand apart in the source; their conditions may differ.

On to `CC/C=C\C[C@H](O)\C=C/C=C/C=C/[C@H](O)C/C=C\C/C=C\CCC(=O)O` [NPD1, 10R,17S-dihydroxy-docosa-4Z,7Z,11E,13E,15Z,19Z-hexaenoic acid], for which the “secreted Wnt5a (sWnt5a) in medium” value reads like this: (ARPE-19 cells, 600 μM H2O2 and 10 ng/ml TNFα, 6 hours, 100 nM NPD1) “disappeared; also recorded: decreases band intensity close to control levels”; (hpRPE cells under UOS, Pitstop2 added 2 hours before harvesting) “decreased Wnt5a in the medium; also recorded: decreased media sWnt5a; also recorded: decreases soluble Wnt5a”.

(Values after patent publication US20220119446A1, “BIOMARKERS AND TREATMENT OF NEURONAL INJURY AND NEURODEGENERATION” (Board of Supervisons of Louisiana State University and …, priority 2018, published 2022).)
